As a reminder, the melting point is the temperature of the solid-liquid transition. Turning to `CC(C)C[C@@H](C(=O)N[C@H](C(=O)N(C)C)C(C)(C)C)[C@H](CN(C)S(C)(=O)=O)C(=O)NO` [Example 1], the melting point is 216 to 218 °C.

Compound `COc1ccc(S(=O)(=O)N(C)C[C@H](C(=O)NO)[C@@H](CC(C)C)C(=O)N[C@H](C(=O)N(C)C)C(C)(C)C)cc1` [Example 7, N^4-(1S-Dimethylcarbamoyl-2,2-dimethyl-propyl)-N^1-hydroxy-3R-isobutyl-2S-{[(4-methoxy-benzenesulfonyl)-methyl-amino]-methyl}-succinamide] came in with a melting point of 217 to 222 °C.

Turning to `CC(C)C[C@@H](C(=O)N[C@H](CO)Cc1ccccc1)[C@H](CN(C)S(C)(=O)=O)C(=O)NO` [Example 3, N^4-(1S-Benzyl-2-hydroxy-ethyl)-N^1-hydroxy-3R-isobutyl-2R-[(methanesulfonyl-methyl-amino)-methyl]-succinamide], the melting point fell in the range of 200 to 202 °C.

In turn, `CC(C)C[C@@H](C(=O)N[C@H](CO)Cc1ccc(O)cc1)[C@H](CN(C)S(C)(=O)=O)C(=O)NO` [Example 6, N^1-Hydroxy-N^4-[2-hydroxy-1S-(4-hydroxy-benzyl)-ethyl]-3R-isobutyl-2S-[(methanesulfonyl-methyl-amino)-methyl]-succinamide] displayed a melting point of 125 to 128 °C.

For the compound `CC(C)C[C@@H](C(=O)N[C@H](CO)C(C)(C)C)[C@H](CN(C)S(C)(=O)=O)C(=O)NO` [Example 4, N^1-Hydroxy-N^4-(1S-hydroxymethyl-2,2-dimethylpropyl)-3R-isobutyl-2R-[(methanesulfonyl-methyl-amino)-methyl]-succinamide], the melting point was 167 to 169 °C.

`COc1ccc(S(=O)(=O)N(C)C[C@H](C(=O)NO)[C@@H](CC(C)C)C(=O)N[C@H](CO)Cc2c[nH]cn2)cc1` [Example 9] showed a melting point of 208 to 209 °C.

`COc1ccc(S(=O)(=O)N(C)C[C@H](C(=O)NO)[C@@H](CC(C)C)C(=O)N[C@H](CO)Cc2ccccc2)cc1` [Example 8, N^4-(1S-Benzyl-2-hydroxy-ethyl)-N^1-hydroxy-3R-isobutyl-2S-{[(4-methoxy-benzenesulfonyl)-methyl-amino]-methyl}-succinamide] registered a melting point of 196 to 203 °C.

`CC(C)C[C@@H](C(=O)N[C@H](CO)Cc1c[nH]cn1)[C@H](CN(C)S(C)(=O)=O)C(=O)NO` [Example 5, N^1-Hydroxy-N^4-[2-hydroxy-1S-(1H-imidazol-4-ylmethyl)-ethyl]-3R-isobutyl-2S-[(methanesulfonyl-methyl-amino)-methyl]-succinamide] had a melting point of 219 to 221 °C.

Take `COCCOCCNC(=O)[C@@H](NC(=O)[C@H](CC(C)C)[C@H](CN(C)S(C)(=O)=O)C(=O)NO)C(C)(C)C` [Example 2, N^1-Hydroxy-3R-isobutyl-2R-[(methanesulfonyl-methyl-amino)-methyl]-N^4-{1S-[2-(2-methoxy-ethoxy)-ethyl-carbamoyl]-2,2-dimethyl-propyl}-succinamide]: the melting point was 192 to 193 °C.

For `COc1ccc(S(=O)(=O)N(C)C[C@H](C(=O)NO)[C@@H](CCCc2ccc(-c3ccccc3)cc2)C(=O)N[C@H](CO)Cc2ccccc2)cc1` [Example 14, N^4-(1S-Benzyl-2-hydroxy-ethyl)-3R-(3-biphenyl-4-yl-propyl)-N^1-hydroxy-2S-{[(4-methoxy-benzenesulfonyl)-methyl-amino]-methyl}-succinamide], the melting point lay within 245 to 247 °C.

With `COc1ccc(S(=O)(=O)N(C)C[C@H](C(=O)NO)[C@@H](CCCc2ccc(-c3ccccc3)cc2)C(=O)N[C@H](CO)C(C)(C)C)cc1` [Example 13, 3R-(3-Biphenyl4-yl-propyl)-N^1-hydroxy-N^4-(1S-hydroxymethyl-2,2-dimethyl-propyl)-2S-{[(4-methoxy-benzenesulfonyl)-methyl-amino]-methyl}-succinamide], the melting point is 226 to 228 °C.

For the compound `COc1ccc(S(=O)(=O)N(C)C[C@H](C(=O)NO)[C@@H](CC2CCCC2)C(=O)N[C@H](CO)C(C)(C)C)cc1` [Example 10, 3R-Cyclopentylmethyl-N^1-hydroxy-N^4-(1S-hydroxymethyl-2,2-dimethyl-propyl)-2S-{[(4-methoxy-benzenesulfonyl)-methyl-amino]-methyl}-succinamide], the melting point lay within 181 to 184 °C.

On to `CN(C[C@H](C(=O)NO)[C@@H](CCCc1ccc(-c2ccccc2)cc1)C(=O)N[C@H](CO)Cc1ccccc1)S(C)(=O)=O` [Example 12, N^4-(1S-Benzyl-2-hydroxy-ethyl)-3R-(3-biphenyl-4-yl-propyl)-N^1-hydroxy-2S-[(methanesulfonyl-methyl-amino)-methyl]-succinamide], for which the melting point was in the range of 201 to 207 °C.

For the origin of these results see patent publication US6358987B1, “Metalloproteinase inhibitors” (British Biotech Pharmaceuticals Limited, priority 1997, dated 2002).
